Measured values: patent US12496218B1, “Fractionated topical ocular drug delivery methods and devices for use in the same” (Bausch + Lomb Ireland Limited, priority 2019, dated 2025)

Key:
humans [1] = test: Distance corrected near visual acuity (DCNVA) in human subjects after topical ocular micro-dosing, conventional vs fractionated
humans [2] = test: Intraocular pressure (IOP) in human subjects after topical ocular micro-dosing, conventional vs fractionated; type: in vivo; conditions: FIG. 5

## CC[C@@H]1C(=O)OC[C@@H]1Cc1cncn1C [pilocarpine]
Humans [1]; 2% pilocarpine, double dosing (regimen D) vs single dose (regimen C)
  toxic effects: absence of any evident toxic effects
Humans [1]; dose regimen B (fractionated 1% pilocarpine), both eyes, photopic conditions, FIG. 4, significant at 1 and 2 hours post-dosing
  change from baseline DCNVA (letter score): biggest gain from baseline at all time points
Humans [1]; dose regimen B: double (fractionated) micro-dose of 1% pilocarpine, 5 minute interval, mesopic and photopic illumination
  portion of subjects who gained more than 15 letters of distance corrected near vision compared with baseline: 66.7%
Humans [1]; dose regimen C: single non fractionated dose of 2% pilocarpine
  eyes that achieved 3 lines of distance corrected near vision improvement: 33.3%
Humans [1]; dose regimen D: double dosing of 2% pilocarpine
  eyes that achieved 3 lines of distance corrected near vision improvement: 0%
Humans [1]; double (fractionated) dose of 1% pilocarpine (B) vs single conventional dose of 1% pilocarpine (A)
  distance corrected near visual acuity, group B compared with group A: statistically significant improvement
Humans [1]; fractionated micro-dose of 1% pilocarpine (B) vs 1 dose of 2% pilocarpine (C), mesopic and photopic
  distance corrected near vision, regimen B compared with regimen C (same total drug amount): performed significantly better
Humans [2]; dose regimen B: fractionated 1% pilocarpine
  IOP (intraocular pressure) result, regimen B compared with regimen C: performed much better
Humans [2]; dose regimen C: single dose of 2% pilocarpine
  IOP (intraocular pressure) result: null IOP result
